Test results published in patent US10307431B2, “Lyophilized cyclophosphamide composition and methods of preparation thereof” (priority 2017, dated 2019).
Like-named read-outs stand apart in the source and are kept apart here.

How the values were obtained:
[1] = bulk solution maintained at 5° C. to 15° C., such as 12° C.±3° C., for an extended period of time
[2] = background, prior art, cited from earlier work

## O=P1(N(CCCl)CCCl)NCCCO1 (stereo not drawn) [cyclophosphamide, 2-[bis(2-chloroethyl)amino]tetrahydro-2H-1,3,2-oxazaphosphorine 2-oxide]
[1]
  degradation in bulk solution: significant degradation

## O=P1(N(CCCl)CCCl)NCCCO1 (stereo not drawn) [monohydrate drug form, cyclophosphamide monohydrate]
[2]; monohydrate
  stability as reported: stable

## O=P1(N(CCCl)CCCl)NCCCO1 (stereo not drawn) [anhydrous form, cyclophosphamide anhydrous]
[2]
  stability as reported: highly unstable
